{
  "source": "paper PMC12481576",
  "about": "“Barbituric Acid Derivatives as Covalent Inhibitors of Leishmania braziliensis Dihydroorotate Dehydrogenase” (Journal of Medicinal Chemistry, 2025)",
  "key": {"[1]": {"experiment": "Kinetic solubility assay in PBS pH 7.4", "type": "physicochemical", "settings": "PBS pH 7.4, 200 μM test conc, 1% DMSO, 2 h at 25 °C", "method": "The plate was incubated for 2 h at 25 °C. The precipitates on the incubation plate were removed by filtration and the filtrates were quantified by LC-MS/MS. Calibration curves were prepared for each compound by using 5–6 points. Samples were analyzed by UV–vis."}, "[2]": {"system": "Leishmania braziliensis promastigotes", "experiment": "Leishmanicidal activity, promastigote growth (SYBR Green, 72 h)", "type": "cell-based, Leishmania (V.) braziliensis (MHOM/BR/1975/M2904)", "settings": "Leishmania braziliensis, L. braziliensis promastigotes, max 200 μM", "method": "The cultures were adjusted to 4 × 10^6 parasites per mL, and 50 μL of each culture was added on a test plate with 384 wells (Corning, #CLS3658), along with the controls and compounds to be tested. Previously diluted compounds in DMSO were added to plates in decreasing concentrations, with a maximum concentration of 200 μM. Parasites were exposed to a final concentration of DMSO in various dilutes (final = 0.5%), and the culture medium was used as the control for the experiment. […] After adding the lysis buffer, the plates were incubated in the dark for 2 h with gentle shaking. The readings were done using a SpectraMax M3 reader (excitation at 485 nm and emission at 535 nm)."}, "LbDHODH": {"biological_target": "LbDHODH (Leishmania braziliensis, UniProt E9AI53)", "sequence (E9AI53 entry or part of it)": "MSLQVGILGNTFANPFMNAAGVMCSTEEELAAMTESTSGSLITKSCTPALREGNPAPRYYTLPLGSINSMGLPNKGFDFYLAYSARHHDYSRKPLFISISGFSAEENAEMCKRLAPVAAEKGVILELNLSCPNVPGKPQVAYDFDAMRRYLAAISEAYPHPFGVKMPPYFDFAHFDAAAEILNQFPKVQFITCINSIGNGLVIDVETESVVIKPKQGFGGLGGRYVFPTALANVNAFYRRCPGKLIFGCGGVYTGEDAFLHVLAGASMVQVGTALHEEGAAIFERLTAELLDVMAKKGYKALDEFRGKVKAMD", "experiment": "biochemical", "settings": "for IC50: LbDHODH", "method": "To assess the ability of compounds 2a–2i to inhibit LbDHODH via covalent bond formation with Cys^131, we initially screened them at a concentration of 100 μM under two conditions: with and without a 4-h preincubation with the enzyme.\nThe experiments were performed in a 96-well microplate reader (SpectraMax Plus 384, Molecular Devices, USA), containing the […] of the buffer 60 mM DCIP, 50 mM Tris pH 8.15, 150 mM KCl, 0.1% Triton X-100, 50 μM DHO and 10 μM of LbDHODH at 165 nM. The reaction was monitored every 3 s at 610 nm over a period of 60 s, in triplicate, for the control and each concentration of the inhibitor. All assays were performed without incubation (0h) and with 4-h preincubation of the inhibitor with LbDHODH, using 5% DMSO (v/v) as control. […]. […] The resulting kobs values were plotted as a function of inhibitor concentration, and the data in the initial linear region was fit to determine the slope, which is kinact/KI. All regressions were performed with GraphPad Prism 9."}, "THP-1 cells": {"system": "THP-1 cells", "experiment": "Cell viability / cytotoxicity assay (PrestoBlue, 72 h)", "type": "cell-based", "settings": "THP-1 cell line, 72 h, max 200 μM", "method": "(§1) THP-1 cells (American Type Cell Collection, #TIB-202) were acquired in 2019 and stored frozen in liquid nitrogen. The cells were then maintained in RPMI 1640 (Thermo Fisher Scientific, #S31800–022) at 37 °C in a 5% CO2 atmosphere and routinely tested for Mycoplasma contamination by PCR using the primers 5′-[…] and 5′-[…]. To test the toxicity of compounds, 5000 cells were added to 96-well plates with a final volume of 80 μL centrifuged at 400g for 2 min and incubated with 150 ng/mL of phorbol myristate acetate (Merck, #P8139) for 48 h. The medium was replaced, and after 24 h, the compounds were added and tested at decreasing concentrations starting from 200 μM (10 μL/well). After 72 h of incubation, 10 μL of PrestoBlue Cell Viability Reagent (Thermo Fisher Scientific, #A13262) was added per well. After adding the reagent, the cells were incubated for 2 h at 37 °C in a 5% CO2 atmosphere, and fluorescence readings were performed using the SpectraMax M3 reader (excitation at 560 nm and emission at 590 nm)."}, "[3]": {"experiment": "Cell viability / cytotoxicity assay (PrestoBlue, 72 h)", "type": "cell-based", "settings": "human; THP-1 cell line, 72 h, max 200 μM; read-out: CC50", "method": "as §1"}, "HsDHODH": {"biological_target": "T1, HsDHODH (Homo sapiens, UniProt Q02127)", "T1 construct": "made in house", "T1 sequence (Q02127 whole entry)": "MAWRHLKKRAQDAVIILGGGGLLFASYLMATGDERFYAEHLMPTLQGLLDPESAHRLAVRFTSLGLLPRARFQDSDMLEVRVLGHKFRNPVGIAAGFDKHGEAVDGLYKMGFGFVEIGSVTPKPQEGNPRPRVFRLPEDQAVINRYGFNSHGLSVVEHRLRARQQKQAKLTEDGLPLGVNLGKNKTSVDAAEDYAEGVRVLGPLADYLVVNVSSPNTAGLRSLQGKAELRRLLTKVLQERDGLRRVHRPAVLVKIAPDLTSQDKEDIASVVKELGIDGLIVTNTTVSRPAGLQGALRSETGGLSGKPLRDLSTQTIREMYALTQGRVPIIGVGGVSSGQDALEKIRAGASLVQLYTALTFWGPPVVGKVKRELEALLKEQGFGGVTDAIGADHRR", "experiment": "Selectivity assay: HsDHODH single-dose inhibition (DCIP reduction)", "type": "biochemical", "method": "[…]. This finding highlights the potential of barbituric acid derivatives as selective inhibitors of LbDHODH.\nHuman DHODH expression and purification were conducted following a protocol previously established in our laboratory. The purification was carried out by affinity chromatography on a Ni-NTA Agarose column (Qiagen[…] Cat. No. 30210). […] The reaction was performed in triplicate, initiated by adding 195 μL of reaction buffer to 5 μL of HsDHODH protein solution for a final concentration of 20 nM enzyme. As a blank, 195 μL of reaction buffer was added to 5 μL of Buffer A. The reaction was monitored at 610 nm every 3 s over 60 s. As a control, 5 μL of enzyme was added to 195 μL of reaction medium without compound. Enzymatic velocity was calculated, and the percentage of relative enzymatic activity was determined relative to the control."}, "[4]": {"settings": "0 h, pH 8.15, read-out: LbDHODH Activity±SD (%)"}, "[5]": {"settings": "4 h, pH 8.15, read-out: LbDHODH Activity±SD (%)"}, "[6]": {"settings": "read-out: Single dose (0h) % activity"}, "[7]": {"settings": "read-out: Single dose (4h) % activity"}},
  "note": "Like-named read-outs stand apart in the source and are kept apart here.",
  "data": [
    {"smiles": "O=C(O)Cc1ccccc1Nc1c(Cl)cccc1Cl", "note": "[Diclofenac Sodium, reference compound]", "values": [
      {"measurement": "solubility kinetic at 2 h", "setting": "[1]; phosphate buffered saline, aqueous buffer, kinetic from dmso stock", "result": 200, "unit": "µM"}
    ]},
    {"smiles": "CC/C(=C(/CC)c1ccc(O)cc1)c1ccc(O)cc1", "note": "[Diethylstilbesterol, reference compound]", "values": [
      {"measurement": "solubility kinetic at 2 h", "setting": "[1]", "result": 9.98, "unit": "µM"}
    ]},
    {"smiles": "O=C1NC(=O)C(=Cc2ccc(-c3ccccc3)cc2)C(=O)N1", "note": "[2f, 5-([1,1′-Biphenyl]-4-ylmethylene)pyrimidine-2,4,6(1H,3H,5H)-trione]", "values": [
      {"measurement": "EC50", "setting": "[2]", "result": "19 ± 14", "unit": "µM"},
      {"measurement": "activity at 0.024414 µM", "setting": "LbDHODH; [4]", "result": "97 ± 2", "unit": "%"},
      {"measurement": "activity at 0.048828 µM", "setting": "LbDHODH; [4]", "result": "93 ± 2", "unit": "%"},
      {"measurement": "activity at 0.0976562 µM", "setting": "LbDHODH; [4]", "result": "98 ± 2", "unit": "%"},
      {"measurement": "activity at 0.195312 µM", "setting": "LbDHODH; [4]", "result": "97 ± 2", "unit": "%"},
      {"measurement": "activity at 0.390625 µM", "setting": "LbDHODH; [4]", "result": "91 ± 2", "unit": "%"},
      {"measurement": "activity at 0.78125 µM", "setting": "LbDHODH; [4]", "result": "94 ± 2", "unit": "%"},
      {"measurement": "activity at 1.5625 µM", "setting": "LbDHODH; [4]", "result": "100 ± 2", "unit": "%"},
      {"measurement": "activity at 3.125 µM", "setting": "LbDHODH; [4]", "result": "94 ± 2", "unit": "%"},
      {"measurement": "activity at 6.25 µM", "setting": "LbDHODH; [4]", "result": "96 ± 2", "unit": "%"},
      {"measurement": "activity at 12.5 µM", "setting": "LbDHODH; [4]", "result": "86 ± 2", "unit": "%"},
      {"measurement": "activity at 25 µM", "setting": "LbDHODH; [4]", "result": "83 ± 2", "unit": "%"},
      {"measurement": "activity at 50 µM", "setting": "LbDHODH; [4]", "result": "71 ± 2", "unit": "%"},
      {"measurement": "activity at 100 µM", "setting": "LbDHODH; [4]", "result": "62 ± 2", "unit": "%"},
      {"measurement": "activity at 200 µM", "setting": "LbDHODH; [4]", "result": "43 ± 1", "unit": "%"},
      {"measurement": "activity at 0.024414 µM", "setting": "LbDHODH; [5]", "result": "103 ± 3", "unit": "%"},
      {"measurement": "activity at 0.048828 µM", "setting": "LbDHODH; [5]", "result": "104 ± 3", "unit": "%"},
      {"measurement": "activity at 0.0976562 µM", "setting": "LbDHODH; [5]", "result": "104 ± 3", "unit": "%"},
      {"measurement": "activity at 0.195312 µM", "setting": "LbDHODH; [5]", "result": "95.5 ± 2", "unit": "%"},
      {"measurement": "activity at 0.390625 µM", "setting": "LbDHODH; [5]", "result": "95.9 ± 2", "unit": "%"},
      {"measurement": "activity at 0.78125 µM", "setting": "LbDHODH; [5]", "result": "85.6 ± 2", "unit": "%"},
      {"measurement": "activity at 1.5625 µM", "setting": "LbDHODH; [5]", "result": "83.3 ± 2", "unit": "%"},
      {"measurement": "activity at 3.125 µM", "setting": "LbDHODH; [5]", "result": "73.6 ± 2", "unit": "%"},
      {"measurement": "activity at 6.25 µM", "setting": "LbDHODH; [5]", "result": "53 ± 1", "unit": "%"},
      {"measurement": "activity at 12.5 µM", "setting": "LbDHODH; [5]", "result": "41 ± 1", "unit": "%"},
      {"measurement": "activity at 25 µM", "setting": "LbDHODH; [5]", "result": "25.2 ± 0.6", "unit": "%"},
      {"measurement": "activity at 50 µM", "setting": "LbDHODH; [5]", "result": "10 ± 0.2", "unit": "%"},
      {"measurement": "activity at 100 µM", "setting": "LbDHODH; [5]", "result": "3.8 ± 0.1", "unit": "%"},
      {"measurement": "activity at 200 µM", "setting": "LbDHODH; [5]", "result": "0.95 ± 0.02", "unit": "%"},
      {"measurement": "IC50", "setting": "LbDHODH; IC50 0 h, without preincubation", "result": "160 ± 10", "unit": "µM"},
      {"measurement": "IC50", "setting": "LbDHODH; IC50 4 h, 4-h preincubation", "result": "7.7 ± 0.3", "unit": "µM"},
      {"measurement": "activity at 100 µM", "setting": "LbDHODH; [6]", "result": "62 ± 2", "unit": "%"},
      {"measurement": "activity at 100 µM", "setting": "LbDHODH; [7]", "result": "3.8 ± 0.1", "unit": "%"},
      {"measurement": "inhibition at 100 µM", "setting": "LbDHODH; read-out: enzyme inhibition", "result": 96.2, "unit": "%"},
      {"measurement": "CC50", "setting": "THP-1 cells", "result": "strong cytotoxicity"},
      {"measurement": "CC50 at 72 h", "setting": "[3]", "result": "12 ± 3", "unit": "µM"},
      {"measurement": "activity at 100 µM", "setting": "HsDHODH; [6]", "result": "103 ± 12", "unit": "%"},
      {"measurement": "activity at 100 µM", "setting": "HsDHODH; [7]", "result": "78 ± 8", "unit": "%"}
    ]}
  ]
}
